Read-outs that look alike come from different tables or passages of the source. Marks after values point to notes of the source that are not given here.
What was measured:
[1] = Protonation constants of the Fe(III) complexes (pH-potentiometry / UV spectrophotometry); type: physicochemical
Description: The protonation constants (KMHiLigand=[MHiLigand]/([MHi-1Ligand]×[H^+])) of the Fe(III) complexes of Compound 2, of Compound 4, of NOTA (comparative), and of HBED (comparative) were determined by pH-potentiometric and/or by spectrophotometric studies.
In particular, the protonation constants of the Fe(NOTA) and Fe(HBED) complexes were determined using pH-potentiometry by titrating the pre-prepared complexes from pH=1.7 to pH=12.0 with 0.2 M NaOH([FeL]=0.002 M). For the pH measurements and titrations, Metrohm 888 Titrando titration workstation Metrohm-6.0234.110 combined electrode was used. Equilibrium measurements were carried out at a constant ionic strength (0.15 M NaNO3 or NaClO4) in 6 ml samples at 25° C. The solutions were stirred, and N2 was bubbled through them. The titrations were made in the pH range of 1.7-12.0. KH-phthalate (pH=4.005) and borax (pH=9.177) buffers were used to calibrate the pH meter. For the calculation of [H^+] from the measured pH values, the method disclosed in Irving et al. Anal. Chim. Acta, 1967, 38, 475-488 was used as follows: a 0.01M HNO3 or HClO4 solution was titrated with a standardized NaOH solution at 0.15 M NaNO3 ionic strength. The differences (A) between the measured (pHread) and calculated pH (−log [H^+]) values were used to obtain the equilibrium H^+ concentration from the pH values measured in the titration experiments (A=0.02 for 0.15 M NaNO3, 0.01 for 0.15 M NaClO4). For the equilibrium calculations, the stoichiometric water ionic product (pKw) was also needed to calculate [OH^−] values under basic conditions. The VNaOH-pHread data pairs of the HNO3—NaOH titration obtained in the pH range 10.5-12.0 were used to calculate the pKw value (pKw=13.76).
The protonation constants of Fe(Compound 2) and Fe(Compound 4) complexes were determined by UV spectrophotometry analysis in the wavelength range of 210-700 nm ([Fe(Compound 2)]=43 μM, [Fe(Compound 4)]=100 μM, 0.15 M NaClO4, 25° C.) according to the method disclosed in Example 11A above.

[2] = Kinetic inertness: transchelation reactions with excess HBED as exchanging ligand; type: physicochemical
Description: To obtain data relating to the kinetic inertness of Fe(Compound 2), Fe(Compound 4) and Fe(NOTA) (comparative), the transchelation reactions (schematized below) were investigated by VIS-spectrophotometry (for Fe(Compound 4) and Fe(NOTA), comparative) and by Capillary Zone Electrophoresis (CZE) (for Fe(Compound 2)) in the presence of a large excess of HBED as an exchanging ligand (Fe(Compound 2): [Fe(Compound 2)]=87 μM, [HBED]=0.1 and 0.2 M, 1.0 M NaClO4, 25° C.; Fe(Compound 4): [Fe(Compound 4)]=100 μM, [HBED]=0.002 and 0.02 M, 0.15 M NaNO3, 25° C. Fe(NOTA): [Fe(NOTA)]=0.2 mM, [HBED]=2.0 and 4.0 mM, 0.15 M NaNO3, 25° C.) in order to guarantee the pseudo-first order kinetic conditions. FeL+HBED ? Fe(HBED)+L with L=Compound 2, Compound 4 or NOTA. A) Determination of Kinetic Inertness of Fe(III) Complexes
The transchelation reactions of Fe(Compound 4) and Fe(NOTA) (comparative) were studied by spectrophotometry, following the formation of the resulting Fe(HBED) complex at 472 and 470 nm with PerkinElmer Lambda 365 UV-Vis spectrophotometer. The concentration of the Fe(Compound 4) and Fe(NOTA) complex was 0.1 and 0.2 mM, while the concentration of the HBED was 10-200 times higher, in order to guarantee pseudo-first-order conditions. The temperature was maintained at 25° C. and the ionic strength of the solutions was kept constant, 0.15 M for NaNO3. The exchange rates were studied in the pH range about 9.5-14.0. Buffer was not used since the excess of HBED was able to maintain the constant pH values at pH<12. […] The pseudo-first-order rate constants (kd) were calculated by fitting of the absorbance—time data pairs to Equation 2.
[formula] where At, A0 and Ap are the absorbance values at time t, the start of the reaction and at equilibrium, respectively. […] The pseudo-first-order rate constants (kd) were calculated by fitting the area-time data pairs to Equation 2 above, where At, A0 and Ap are the area values at time t, the start of the reaction and at equilibrium, respectively. […]

[3] = for pFe (−log [Fe^3+]free, conditional stability): 10 µM, pH 7.4
Description: (§1) To assess the thermodynamic stability of the Fe(III) complexes of the invention, as well as of comparative ones, the protonation constants of the respective ligands first, and then of the Fe(III) complexes, were determined by pH-potentiometry and/or by UV spectrophotometry. Finally, based on the protonation constants, the thermodynamic stability constant of the Fe(III) complexes of the invention were determined by observing the competition reaction between the Fe(III) complexes and the N,N′-bis(2-hydroxybenzyl)ethylenediamine-N,N′-diacetic acid (HBED) ligand using capillary zone electrophoresis (CZE) for Compound 2 and Vis spectrophotometry for Compound 4.
(§2) The thermodynamic stability constants (KMLigand=([MLigand]/([M]×[Ligand])) of the Fe(III) complexes were determined as follows.
(§3) The stability constant of the Fe(NOTA) complex was determined by spectrophotometry studies of the Fe^3+-NOTA system at the absorption band of Fe^III complexes at [H^+]=0.01-3.0 M in the wavelength range of 350-800 nm. The concentrations of Fe^3+ and NOTA were 0.002 M. The H^+ concentration in the samples was adjusted with the addition of calculated amounts of a 6 M solution of HNO3 (I=[Na^+]+[H^+]=0.15, [H^+]≤0.15 M). The samples were kept at 25° C. for two weeks.
(§4) The absorbance values of the samples were determined at 11 wavelengths (370, 380, 390, 395, 400, 405, 410, 415, 420, 425 and 430 nm). For the calculations of the thermodynamic stability constant of the Fe(NOTA), the molar absorptivities of Fe^3+ and Fe(NOTA) were determined by recording the spectra of 1.0×10^−3, 1.5×10^−3, 2.0×10^−3 and 2.5×10^−3 M solutions of Fe^3+ and Fe(NOTA) solutions. The absorption spectra of the Fe(NOTA) solutions were recorded in the pH range of 1.7-7.5. All spectrophotometric measurements were performed at 25° C. in 0.15 M NaNO3 solution. The pH was adjusted by stepwise addition of concentrated NaOH or HNO3 solutions.
(§5) The stability constants of the Fe(HBED) complex was determined by following the competition reaction between HBED and NOTA ligands for Fe^3+-ion with spectrophotometry at the absorption band of Fe(HBED) complex in the wavelength range of 400-700 nm. […] The time needed to reach the equilibria was determined by spectrophotometry. The absorbance values of the samples were determined at the absorption band of the Fe(HBED) complex ([Fe(HBED)]-species predominates at pH=5.0). For the calculations of the thermodynamic stability constants of the Fe(HBED) complexes, the molar absorptivities of [Fe(HBED)]-species were determined by recording the spectra of 0.5, 0.1 and 0.2 mM solutions of [Fe(HBED)]^− at pH=5 in the presence of 0.15 M NaNO3. […] The thermodynamic stability constants were calculated with the PSEQUAD program. […]

[4] = 0.15M NaNO3; from Baranyai et al., Chem. Sci. 2021; cited from earlier work
[5] = Thermodynamic stability of the Fe(III) complexes (competition with HBED/NOTA, CZE or spectrophotometry); conditions: Spectrophotometry, 0.15M NaNO3, 25° C.
Description: as §1, §2, §3, §4, §5

[6] = 60 MHZ, 40° C. in PBS buffer; cited from earlier work
[7] = Spectrophotometry, 0.15M NaClO4, 25° C.
[8] = 0.15M NaNO3, 25° C., spectrophotometry
[9] = pH-potentiometry, 0.15M NaNO3, 25° C.

Cc1cc(CNC(CO)CO)c(O)c(CN2CCN(Cc3cc(C)cc(CNC(CO)CO)c3O)CCN(Cc3cc(C)cc(CNC(CO)CO)c3O)CC2)c1 [Compound 2, 2,2′,2″-{1,4,7-triazonane-1,4,7-triyltris[methylene(2-hydroxy-5-methyl-3,1-phenylene)methyleneazanediyl]}tri(propane-1,3-diol)]
FeH2L (protonation constant of the Fe(III) complex) [1, 7]: 9.47 (1)^b | FeH3L (protonation constant of the Fe(III) complex) [1, 7]: 7.82 (5)^b | FeHL (protonation constant of the Fe(III) complex) [1, 7]: 10.53 (4)^b | kd (s^−1) at pH = 7.4 (dissociation rate constant) ([2]; 1.0M NaClO4, 25° C., CZE, extrapolated from data at pH>9.0): 1.9 × 10^−9 s^−1 | pFe (−log [Fe^3+]free, conditional stability) [3]: 32.4 | FeL (thermodynamic stability constant, log KFeL) ([3]; 4 weeks, 87 µM, pH 11): 44.0 (3)

Cc1cc(CNC(CO)CO)c(O)c(CN2CCNCCN(Cc3cc(C)cc(CNC(CO)CO)c3O)CC2)c1 [Compound 4, 2,2′-{1,4,7-triazonane-1,4-diylbis[methylene(2-hydroxy-5-methyl-3,1-phenylene)methyleneazanediyl]}di(propane-1,3-diol)]
FeH2L (protonation constant of the Fe(III) complex) [1, 7]: 6.02 (1)^b | FeHL (protonation constant of the Fe(III) complex) [1, 7]: 8.82 (1)^b | FeLH−1 (protonation constant of the Fe(III) complex) [1, 7]: 10.12 (1)^b | kd (s^−1) at pH = 7.4 (dissociation rate constant) [2, 8]: 3.4 × 10^−8 s^−1 | pFe (−log [Fe^3+]free, conditional stability) [3]: 26.5

O=C(O)CN(CCN(CC(=O)O)CC(=O)O)CC(=O)O [EDTA]
kd (s^−1) at pH = 7.4 (dissociation rate constant) [4]: 2.9 × 10^−6 s^−1

O=C([O-])CN(CCN(CC(=O)[O-])Cc1ccccc1[O-])Cc1ccccc1[O-].[Fe+3] [Fe(HBED)]
FeL (thermodynamic stability constant, log KFeL) [5]: 40.2

O=C(O)CN(CCN(CC(=O)O)Cc1ccccc1O)Cc1ccccc1O [HBED, N,N′-bis(2-hydroxybenzyl)ethylenediamine-N,N′-diacetic acid, reference compound]
FeHL (protonation constant of the Fe(III) complex) [1, 9]: 1.87 (4) | FeLH−1 (protonation constant of the Fe(III) complex) [1, 9]: 12.3 (1) | r1 of Fe(III) complex [6]: 0.49 mM⁻¹ s⁻¹

O=C(O)CN1CCN(CC(=O)O)CCN(CC(=O)O)CC1 [NOTA, reference compound]
FeLH−1 (protonation constant of the Fe(III) complex) [1, 9]: 9.12 (4) | kd (s^−1) at pH = 7.4 (dissociation rate constant) [2, 8]: 4.0 × 10^−9 s^−1

O=C(O)CN(CC(=O)O)C1CCCCC1N(CC(=O)O)CC(=O)O (stereo not drawn) [CDTA, trans-cyclohexane diamine tetraacetic acid]
kd (s^−1) at pH = 7.4 (dissociation rate constant) [4]: 2.1 × 10^−9 s^−1

Reference: US12358880B2, “1,4-bis-(2-hydroxy-benzyl)-1,4,7-triazacyclononane derivatives and similar compounds as ligands in iron(III) complexes for use as MRI contrast agents” (BRACCO IMAGING S.P.A., priority 2022, dated 2025)
